Assay results reported in ChEMBL document CHEMBL1201862, “PubChem BioAssay data set” (2004).
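The compound was tested at five concentrations on cells cultured in 96-well plates, with a 48-hour exposure period. Here, GI50 denotes the concentration required for 50% inhibition of growth.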 Calls of active or inactive are those of the source. No stated cut-off is given here; in the data, active = GI50 up to about 1.1 µM and inactive = higher.

Columns and labels:
Assay in all cases: NCI anticancer screen, dose series, 48 h
[1] = system: KM12
[2] = system: U-251
[3] = system: SN12C
[4] = system: Malme-3M
[5] = system: SNB-75
[6] = system: OVCAR-5
[7] = system: 786-0
[8] = system: A549
[9] = system: UACC-257
[10] = system: A498
[11] = system: SR
[12] = system: RXF 393
[13] = system: HOP-62
[14] = system: NCI-H226
[15] = system: LOX IMVI
[16] = system: SK-MEL-5
[17] = system: NCI-H460

Row | Compound | GI50 [1] | GI50 [2] | GI50 [3] | GI50 [4] | GI50 [5] | GI50 [6] | GI50 [7] | GI50 [8] | GI50 [9] | GI50 [10] | GI50 [11] | GI50 [12] | GI50 [13] | GI50 [14] | GI50 [15] | GI50 [16] | GI50 [17]
1 | COc1ccc2nc3ccccc3c(NCCN(CCCl)CCCl)c2c1 | 1.34 µM (inactive) | 0.326 µM (active) | 0.658 µM (active) | 1.51 µM (inactive) | 1.25 µM (inactive) | 0.643 µM (active) | 0.33 µM (active) | 0.771 µM (active) | 1.3 µM (inactive) | 2.49 µM (inactive) | 0.0321 µM (active) | 1.66 µM (inactive) | 0.555 µM (active) | 1 µM (active) |  |  | 
2 | CCOc1ccc(/C=C\c2cc(OC)c(OC)c(OC)c2)cc1 | 0.00703 µM (active) | 0.000172 µM (active) | 0.00129 µM (active) | 0.00139 µM (active) | < 0.0001 µM (active) | 22.1 µM (inactive) | 0.000216 µM (active) | 0.0006 µM (active) | 0.01 µM (active) | 0.00124 µM (active) | 0.000931 µM (active) | < 0.0001 µM (active) | 0.000964 µM (active) | 0.00218 µM (active) | 0.000291 µM (active) | 0.012 µM (active) | 0.000674 µM (active)
3 | CC(=O)OC1COC(n2c(=S)n(-c3ccccc3)c(=O)c3ccccc32)C(OC(C)=O)C1OC(C)=O (centres undefined) | 29.2 µM (inactive) | 78.5 µM (inactive) | > 100 µM (inactive) | > 100 µM (inactive) | > 100 µM (inactive) | > 100 µM (inactive) | 78.9 µM (inactive) | 39.9 µM (inactive) | > 100 µM (inactive) | > 100 µM (inactive) |  | 55.3 µM (inactive) | > 100 µM (inactive) | > 100 µM (inactive) | 21.4 µM (inactive) | 98.2 µM (inactive) | 66.1 µM (inactive)
4 | COC[C@@H](/N=C/N1CCc2cc(OC)c(OC)cc2C1)C(C)(C)C | > 100 µM (inactive) | > 100 µM (inactive) | > 100 µM (inactive) | > 100 µM (inactive) | > 100 µM (inactive) |  | > 100 µM (inactive) | > 100 µM (inactive) | > 100 µM (inactive) |  | > 100 µM (inactive) | > 100 µM (inactive) | > 100 µM (inactive) | > 100 µM (inactive) |  | > 100 µM (inactive) | > 100 µM (inactive)
5 | CN1C(=O)C(Cl)(C(Cl)(Cl)S(=O)(=O)O)C(=O)c2ccccc21.c1ccncc1 (centres undefined) | > 100 µM (inactive) | > 100 µM (inactive) | > 100 µM (inactive) | 33.2 µM (inactive) | 54.2 µM (inactive) |  | > 100 µM (inactive) | > 100 µM (inactive) | > 100 µM (inactive) | > 100 µM (inactive) | > 100 µM (inactive) | 53.7 µM (inactive) | > 100 µM (inactive) | 33.7 µM (inactive) | > 100 µM (inactive) | > 100 µM (inactive) | > 100 µM (inactive)
6 | COc1ccc(OC)c(CCc2ccccc2CC(=O)O)c1 | > 100 µM (inactive) | > 100 µM (inactive) | > 100 µM (inactive) | > 100 µM (inactive) | 35.5 µM (inactive) | > 100 µM (inactive) | > 100 µM (inactive) | > 100 µM (inactive) | > 100 µM (inactive) | > 100 µM (inactive) | > 100 µM (inactive) | > 100 µM (inactive) |  | > 100 µM (inactive) | > 100 µM (inactive) | > 100 µM (inactive) | > 100 µM (inactive)
7 | CNS(=O)(=O)NNS(=O)(=O)c1ccc2ccccc2c1 | > 100 µM (inactive) | > 100 µM (inactive) | > 100 µM (inactive) | > 100 µM (inactive) | > 100 µM (inactive) | > 100 µM (inactive) | > 100 µM (inactive) | > 100 µM (inactive) | > 100 µM (inactive) | > 100 µM (inactive) | 80.2 µM (inactive) |  | > 100 µM (inactive) | > 100 µM (inactive) | > 100 µM (inactive) | > 100 µM (inactive) | 40.2 µM (inactive)
8 | Cc1ccccc1C(C#N)/C(=N/NC(=O)C(=O)NN)C(=O)Nc1cccc(C(F)(F)F)c1 (centres undefined) | > 100 µM (inactive) | > 100 µM (inactive) | > 100 µM (inactive) | > 100 µM (inactive) | 49.8 µM (inactive) | > 100 µM (inactive) | > 100 µM (inactive) | > 100 µM (inactive) | > 100 µM (inactive) | > 100 µM (inactive) | > 100 µM (inactive) |  | > 100 µM (inactive) | > 100 µM (inactive) |  | > 100 µM (inactive) | > 100 µM (inactive)
9 | c1ccc(-c2nnc3nn4c(-c5ccccc5)cnnc4c3c2-c2ccccc2)cc1 | > 100 µM (inactive) | 32.6 µM (inactive) | > 100 µM (inactive) | 42.5 µM (inactive) | 34.4 µM (inactive) | > 100 µM (inactive) | 0.0794 µM (active) | 50.8 µM (inactive) | 96.8 µM (inactive) | > 100 µM (inactive) | > 100 µM (inactive) | 14.7 µM (inactive) |  | > 100 µM (inactive) | > 100 µM (inactive) | 67.1 µM (inactive) | 75.7 µM (inactive)
10 | COc1ccc(-c2cc(=O)c3c(O)cc(O)cc3o2)c(OC)c1OC | 53.1 µM (inactive) |  | > 100 µM (inactive) | > 100 µM (inactive) | 38.3 µM (inactive) | 92.3 µM (inactive) | 80 µM (inactive) | 59.3 µM (inactive) | > 100 µM (inactive) |  |  | 48.8 µM (inactive) | > 100 µM (inactive) | > 100 µM (inactive) | 70.1 µM (inactive) |  | 
11 | CC[C@H](C)C(=O)O[C@H]1C[C@@H](C)C=C2C=C[C@H](C)[C@H](CC[C@@H]3C[C@@H](O)CC(=O)O3)[C@H]21 [LOVASTATIN] | > 30 µM (inactive) |  | 1.71 µM (inactive) | > 30 µM (inactive) |  | > 30 µM (inactive) | 9.77 µM (inactive) | 21.2 µM (inactive) | 20 µM (inactive) | 1.21 µM (inactive) | 2.11 µM (inactive) | 2.52 µM (inactive) | 13.1 µM (inactive) | 11.9 µM (inactive) | 1.58 µM (inactive) | 6.7 µM (inactive) | 18 µM (inactive)
12 | CCCc1nn(C)c(CCC(=O)N(Cc2ccccc2)Cc2ccccc2)c1CC | > 100 µM (inactive) | > 100 µM (inactive) | > 100 µM (inactive) | > 100 µM (inactive) | 47 µM (inactive) | > 100 µM (inactive) | > 100 µM (inactive) | > 100 µM (inactive) | > 100 µM (inactive) | > 100 µM (inactive) |  | > 100 µM (inactive) | > 100 µM (inactive) | > 100 µM (inactive) | > 100 µM (inactive) | > 100 µM (inactive) | > 100 µM (inactive)
13 | CCC12CCCN(Cc3ccccc3)C1c1c(n(C)c3ccccc13)C(C(=O)OC)C2 (centres undefined) | 85.3 µM (inactive) | 117 µM (inactive) | 84.1 µM (inactive) | > 239 µM (inactive) |  | 78.2 µM (inactive) | 206 µM (inactive) | > 239 µM (inactive) | 66.4 µM (inactive) |  | 72.6 µM (inactive) | 128 µM (inactive) | 129 µM (inactive) | 66.2 µM (inactive) | 158 µM (inactive) | 43.8 µM (inactive) | 117 µM (inactive)
14 | COc1ccc(/C=N/N=C(\N)NO)cc1OC | 52.7 µM (inactive) | 38.1 µM (inactive) | 45.8 µM (inactive) | 75.2 µM (inactive) | 42.9 µM (inactive) | 63 µM (inactive) | 31 µM (inactive) | 28.4 µM (inactive) | 90.4 µM (inactive) |  | 24.9 µM (inactive) | 30.5 µM (inactive) | 31.9 µM (inactive) | 28.1 µM (inactive) | 30.3 µM (inactive) | 15.2 µM (inactive) | 33.7 µM (inactive)
15 | COC(=O)/C=C1/CCC2[C@@H](C(=O)CC3[C@]2(C)CCC[C@@]3(C)C(=O)OC)C1C (some centres undefined) | 12.6 µM (inactive) | 15.4 µM (inactive) | 15.3 µM (inactive) | 16.1 µM (inactive) | 8.99 µM (inactive) | 20 µM (inactive) | 14.9 µM (inactive) | 15.6 µM (inactive) | 10.4 µM (inactive) | 17.7 µM (inactive) |  |  | 21.9 µM (inactive) | 21.2 µM (inactive) |  | 5.69 µM (inactive) | 14.2 µM (inactive)
16 | CCN1CCC(O)(c2ccc(Cl)cc2)C(C(=O)c2ccc(Cl)cc2)C1 (centres undefined) | > 100 µM (inactive) | > 100 µM (inactive) | > 100 µM (inactive) |  | 42 µM (inactive) | > 100 µM (inactive) | > 100 µM (inactive) | > 100 µM (inactive) | > 100 µM (inactive) | > 100 µM (inactive) | 36.6 µM (inactive) | > 100 µM (inactive) |  |  | > 100 µM (inactive) | > 100 µM (inactive) | > 100 µM (inactive)
17 | CC(C)C(Nc1c2ccccc2nc2ccccc12)C(=O)O (centres undefined) | > 100 µM (inactive) | > 100 µM (inactive) | > 100 µM (inactive) | > 100 µM (inactive) | > 100 µM (inactive) | > 100 µM (inactive) | > 100 µM (inactive) | > 100 µM (inactive) | > 100 µM (inactive) |  | 46.5 µM (inactive) | > 100 µM (inactive) |  | > 100 µM (inactive) | 55.1 µM (inactive) |  | 65.5 µM (inactive)
18 | O=[N+]([O-])/C=C/c1ccc(Cl)cc1Cl | 14.7 µM (inactive) | 5.66 µM (inactive) |  | 17.8 µM (inactive) | 20.4 µM (inactive) | 17.8 µM (inactive) | 15.6 µM (inactive) | 21 µM (inactive) | 13.4 µM (inactive) |  | 11.4 µM (inactive) |  | 14.2 µM (inactive) | 17.6 µM (inactive) |  | 15.6 µM (inactive) | 17.9 µM (inactive)
